Experimental data as given in PubChem BioAssay AID330 (DTP/NCI, 2004).
“And” between values parts separate entries of the source, which are not always exact repeats. Equal values may be shown once. Inconclusive results and toxic doses are left out.

Test system: P388 leukemia ip, CD2F1 mice, survival T/C
Assay: NCI In Vivo Anticancer Drug Screen. Data for tumor model P388 Leukemia (intraperitoneal) in CD2F1 (CDF1) mice
Conditions: endpoint: median survival time, higher = longer survival
Procedure, shortened: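 Mice carrying the transplanted tumor received test compound or vehicle. Survival was recorded in each group, and the value is the treated-group measurement divided by that of the vehicle-treated control group.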

[1] = dose: 100.0 mg/kg/injection, schedule: Q04DX002 (ip), vehicle: Klucel (hydroxypropylcellulose) (HPC)
[2] = dose: 200.0 mg/kg/injection, schedule: Q04DX002 (ip), vehicle: Klucel (hydroxypropylcellulose) (HPC)
[3] = dose: 400.0 mg/kg/injection, schedule: Q04DX002 (ip), vehicle: Klucel (hydroxypropylcellulose) (HPC)
[4] = dose: 100.0 mg/kg/injection, schedule: Q04DX003 (ip), vehicle: saline with Tween-80
[5] = dose: 200.0 mg/kg/injection, schedule: Q04DX003 (ip), vehicle: saline with Tween-80
[6] = dose: 400.0 mg/kg/injection, schedule: Q04DX003 (ip), vehicle: saline with Tween-80
[7] = dose: 100.0 mg/kg/injection, schedule: Q04DX003 (ip), vehicle: saline
[8] = dose: 60.0 mg/kg/injection, schedule: Q01DX005 (ip), vehicle: saline with Tween-80
[9] = dose: 120.0 mg/kg/injection, schedule: Q01DX005 (ip), vehicle: saline with Tween-80
[10] = dose: 240.0 mg/kg/injection, schedule: Q01DX005 (ip), vehicle: saline with Tween-80
[11] = dose: 100.0 mg/kg/injection, schedule: Q01DX009 (ip), vehicle: saline
[12] = dose: 200.0 mg/kg/injection, schedule: Q04DX003 (ip), vehicle: saline
[13] = dose: 400.0 mg/kg/injection, schedule: Q04DX003 (ip), vehicle: saline
[14] = dose: 25.0 mg/kg/injection, schedule: Q01DX009 (ip), vehicle: saline
[15] = dose: 50.0 mg/kg/injection, schedule: Q01DX009 (ip), vehicle: saline
[16] = dose: 50.0 mg/kg/injection, schedule: Q01DX005 (ip), vehicle: saline with Tween-80
[17] = dose: 100.0 mg/kg/injection, schedule: Q01DX005 (ip), vehicle: saline with Tween-80
[18] = dose: 200.0 mg/kg/injection, schedule: Q01DX005 (ip), vehicle: saline with Tween-80
[19] = dose: 200.0 mg/kg/injection, schedule: Q01DX009 (ip), vehicle: saline with Tween-80

CC1(O)CC2(O)C=CC3=C(C(=O)c4cccc(O)c4C3=O)C2(O)C(=O)C1O (configuration not stated)
T/C (dose: 0.75 mg/kg/injection, schedule: Q01DX005 (ip), vehicle: distilled water + Tween-80 + alcohol): 107 % of control | T/C (dose: 1.5 mg/kg/injection, schedule: Q01DX005 (ip), vehicle: distilled water + Tween-80 + alcohol): 114 % of control

OCc1cc2ccccc2c2c1OCCOCCOCCOCCOCCOc1ccc3ccccc3c1-2
T/C (dose: 100.0 mg/kg/injection, schedule: Q04DX002 (ip), vehicle: saline with Tween-80): 104 % of control | T/C (dose: 200.0 mg/kg/injection, schedule: Q04DX002 (ip), vehicle: saline with Tween-80): 99 % of control | T/C (dose: 400.0 mg/kg/injection, schedule: Q04DX002 (ip), vehicle: saline with Tween-80): 107 % of control

O=C1C(=Cc2ccc(Cl)cc2)C(=O)N(c2ccccc2)C(=S)N1c1ccccc1
T/C [1]: 101 % of control | T/C [2]: 93 % of control | T/C [3]: 89 % of control

CCOC(OCC)c1ccc(Cl)cc1
T/C [4]: 100 % of control | T/C [5]: 105 % of control | T/C [6]: 106 % of control

CC1CN1P(=O)(N1CC1C)N1CC1C (configuration not stated)
T/C (dose: 3.13 mg/kg/injection, schedule: Q04DX003 (ip), vehicle: saline): 104 % of control | T/C (dose: 6.25 mg/kg/injection, schedule: Q04DX003 (ip), vehicle: saline): 109 % of control | T/C (dose: 12.5 mg/kg/injection, schedule: Q04DX003 (ip), vehicle: saline): 109 % of control | T/C (dose: 50.0 mg/kg/injection, schedule: Q04DX003 (ip), vehicle: saline): 222 % of control | T/C [7]: 86 % of control

Cc1ccc([N+](=O)[O-])cc1NC(=O)NNC(=O)CNC(=O)NCc1ccco1
T/C [8]: 93 % of control | T/C [9]: 89 % of control | T/C [10]: 89 % of control

C=CCCCn1nnc2ccccc21
T/C [4]: 102 % of control | T/C [5]: 94 % of control | T/C [6]: 86 % of control

O=S(=O)(O)c1cccnc1
T/C [11]: 104 % of control | T/C [7]: 100 % of control | T/C (dose: 200.0 mg/kg/injection, schedule: Q01DX009 (ip), vehicle: saline): 104 % of control | T/C [12]: 95 % of control | T/C (dose: 400.0 mg/kg/injection, schedule: Q01DX009 (ip), vehicle: saline): 95 % of control | T/C [13]: 100 % of control

CCOC1=C(C#N)C(SC)=CS(C)(=O)=C1 (configuration not stated)
T/C (dose: 50.0 mg/kg/injection, schedule: Q04DX003 (ip), vehicle: Klucel (hydroxypropylcellulose) (HPC)): 98 % of control | T/C (dose: 100.0 mg/kg/injection, schedule: Q04DX003 (ip), vehicle: Klucel (hydroxypropylcellulose) (HPC)): 97 % of control | T/C (dose: 200.0 mg/kg/injection, schedule: Q04DX003 (ip), vehicle: Klucel (hydroxypropylcellulose) (HPC)): 101 % of control

Cc1cc2cc(CN3C(=O)c4ccccc4C3=O)ccc2[nH]1
T/C (dose: 100.0 mg/kg/injection, schedule: Q01DX001 (ip), vehicle: Klucel (hydroxypropylcellulose) (HPC)): 100 % of control | T/C (dose: 200.0 mg/kg/injection, schedule: Q01DX001 (ip), vehicle: Klucel (hydroxypropylcellulose) (HPC)): 93 % of control | T/C (dose: 400.0 mg/kg/injection, schedule: Q01DX001 (ip), vehicle: Klucel (hydroxypropylcellulose) (HPC)): 93 % of control

COc1ccc2nc3cc(Cl)ccc3c(NCCCNCCCCNCCCNc3c4ccc(Cl)cc4nc4ccc(OC)nc34)c2n1
T/C (dose: 0.93 mg/kg/injection, schedule: Q01DX005 (ip), vehicle: saline with Tween-80): 100 % of control | T/C (dose: 1.87 mg/kg/injection, schedule: Q01DX005 (ip), vehicle: saline with Tween-80): 106 % of control | T/C (dose: 3.75 mg/kg/injection, schedule: Q01DX005 (ip), vehicle: saline with Tween-80): 121 % of control

C(CSC1=NCCN1)CSC1=NCCN1
T/C [14]: 120 % of control | T/C [15]: 117 % of control

Cc1ccc(C[n+]2ccc3c([N+](=O)[O-])cccc3c2)cc1
T/C (dose: 6.25 mg/kg/injection, schedule: Q01DX009 (ip), vehicle: saline with Tween-80): 112 % of control | T/C (dose: 12.5 mg/kg/injection, schedule: Q01DX009 (ip), vehicle: saline with Tween-80): 113 % of control | T/C (dose: 25.0 mg/kg/injection, schedule: Q01DX009 (ip), vehicle: saline with Tween-80): 114 % of control

CON1C(=O)OCC(c2ccccc2)(c2ccccc2)C1=O
T/C [16]: 99 % of control | T/C [17]: 104 % of control | T/C [18]: 91 % of control

CCOC(=O)C1=C(C(=O)c2ccc(C)cc2)C(c2c(Cl)cccc2Cl)C(C(=O)c2ccc(C)cc2)=C(C(=O)OCC)N1
T/C (dose: 30.0 mg/kg/injection, schedule: Q01DX005 (ip), vehicle: saline with Tween-80): 104 % of control | T/C [8]: 102 % of control | T/C [9]: 104 % of control and 90 % of control | T/C [10]: 88 % of control

Cc1cnc2c(N)nn(-c3ccccc3)c2n1
T/C [4]: 95 % of control | T/C [5]: 105 % of control

N#CNC(=O)c1ccc(C(=O)NC#N)cc1
T/C [16]: 98 % of control | T/C [17]: 98 % of control | T/C [18]: 90 % of control

Nc1cccc(C(=O)c2ccc(N)c(N)c2)c1
T/C [8]: 90 % of control | T/C [9]: 92 % of control

COc1ccc(/C(C#N)=C/c2ccncc2)cc1OC
T/C (dose: 12.5 mg/kg/injection, schedule: Q01DX009 (ip), vehicle: saline): 102 % of control | T/C [14]: 97 % of control | T/C [15]: 101 % of control | T/C [11]: 101 % of control

CC(c1ccccc1)n1ccnc1CC#N (configuration not stated)
T/C (dose: 15.0 mg/kg/injection, schedule: Q01DX005 (ip), vehicle: saline): 101 % of control | T/C (dose: 30.0 mg/kg/injection, schedule: Q01DX005 (ip), vehicle: saline): 100 % of control | T/C (dose: 60.0 mg/kg/injection, schedule: Q01DX005 (ip), vehicle: saline): 99 % of control and 98 % of control

CCn1c2ccc([N+](=O)[O-])cc2c2c([N+](=O)[O-])c(NC(C)=O)ccc21
T/C [16]: 93 % of control | T/C [17]: 95 % of control | T/C [18]: 92 % of control

CCOC(=O)c1oc2ccccc2c1CN(CCO)CCO
T/C [16]: 98 % of control | T/C [17]: 100 % of control | T/C [18]: 105 % of control

CC(=O)NC(CCC(C)(C)SCc1ccccc1)C(=O)O (configuration not stated)
T/C (dose: 50.0 mg/kg/injection, schedule: Q01DX009 (ip), vehicle: saline with Tween-80): 91 % of control | T/C (dose: 100.0 mg/kg/injection, schedule: Q01DX009 (ip), vehicle: saline with Tween-80): 94 % of control | T/C [19]: 103 % of control

Clc1ccc(N=C(SSC(Cl)(Cl)Cl)SSC(Cl)(Cl)Cl)cc1
T/C [19]: 114 % of control

CCN(CC)c1ccc(Cc2ccc(N(CC)CC)c3cccnc23)c2ncccc12
T/C (dose: 50.0 mg/kg/injection, schedule: Q01DX005 (ip), vehicle: Klucel (hydroxypropylcellulose) (HPC)): 100 % of control | T/C (dose: 100.0 mg/kg/injection, schedule: Q01DX005 (ip), vehicle: Klucel (hydroxypropylcellulose) (HPC)): 99 % of control | T/C (dose: 200.0 mg/kg/injection, schedule: Q01DX005 (ip), vehicle: Klucel (hydroxypropylcellulose) (HPC)): 98 % of control

Nc1nc(=O)n(C2CC(O)C(CO)O2)cc1Br (configuration not stated)
T/C [7]: 91 % of control | T/C [12]: 100 % of control | T/C [13]: 104 % of control

COC(=O)C1=C(C(=O)OC)C2C=CC1C1C(Br)C(Br)C21 (configuration not stated)
T/C (dose: 50.0 mg/kg/injection, schedule: Q01DX009 (ip), vehicle: Klucel (hydroxypropylcellulose) (HPC)): 100 % of control | T/C (dose: 100.0 mg/kg/injection, schedule: Q01DX009 (ip), vehicle: Klucel (hydroxypropylcellulose) (HPC)): 102 % of control | T/C (dose: 200.0 mg/kg/injection, schedule: Q01DX009 (ip), vehicle: Klucel (hydroxypropylcellulose) (HPC)): 100 % of control

O=C1C(=Cc2cccnc2)C(=O)c2ccccc21
T/C [8]: 106 % of control | T/C [9]: 111 % of control

C=C1N=NN(c2cccc(C(F)(F)F)c2)C1N1CCOCC1 (configuration not stated)
T/C [8]: 99 % of control | T/C [9]: 100 % of control

Cc1cc(OC(=O)N2CCCCC2)c(C(C)C)cc1[N+](C)(C)C
T/C (dose: 0.02 mg/kg/injection, schedule: Q01DX009 (ip), vehicle: saline): 100 % of control | T/C (dose: 0.03 mg/kg/injection, schedule: Q01DX009 (ip), vehicle: saline): 100 % of control | T/C (dose: 0.06 mg/kg/injection, schedule: Q01DX009 (ip), vehicle: saline): 90 % of control

COc1ccc(C2(Cc3ccccc3C#N)OCCO2)cc1OC
T/C [1]: 95 % of control | T/C [2]: 101 % of control | T/C [3]: 99 % of control
